Assays:
Type in all cases: in vivo
ABUTH [1] = test: Pre-emergence herbicidal activity, glasshouse pot test; settings: rate 1000 g/Ha, evaluated after 13 days, scale 0-5
How it was run: (§1)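 Compounds are applied pre-emergence as an aqueous spray, formulated in 50:50 acetone/water containing 0.5% Tween 20, to pots sown one day earlier. Plants grow in a controlled glasshouse and are scored 13 days later for damage from 0 to 5.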

ALOMY [2] = test: as above; settings: rate 1000 g/Ha, evaluated after 13 days, scale 0-5
How it was run: as §1

AMARE [3] = test: as above; settings: rate 1000 g/Ha, evaluated after 13 days, scale 0-5
How it was run: as §1

ECHCG [4] = test: as above; settings: rate 1000 g/Ha, evaluated after 13 days, scale 0-5
How it was run: as §1

SETFA [5] = test: as above; settings: rate 1000 g/Ha, evaluated after 13 days, scale 0-5
How it was run: as §1

ZEAMX [6] = test: as above; settings: rate 1000 g/Ha, evaluated after 13 days, scale 0-5
How it was run: as §1

ABUTH [7] = test: Post-emergence herbicidal activity, glasshouse pot test; settings: Abutilon theophrasti; application post-emergence; rate 1000 g/Ha; evaluated after 13 days
How it was run: (§2)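 Damage rating 0 (none) to 5 (total), assessed 13 days after spraying. Plants received the compound in acetone/water 50:50 with 0.5% Tween 20 at 8 days post-sowing, then were kept at 24/16 °C, 14 h photoperiod, 65% RH.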

ALOMY [8] = test: as above; settings: Alopecurus myosuroides; application post-emergence; rate 1000 g/Ha; evaluated after 13 days
How it was run: as §2

AMARE [9] = test: as above; settings: Amaranthus retroflexus; application post-emergence; rate 1000 g/Ha; evaluated after 13 days
How it was run: as §2

ECHCG [10] = test: as above; settings: Echinochloa crus-galli; application post-emergence; rate 1000 g/Ha; evaluated after 13 days
How it was run: as §2

SETFA [11] = test: as above; settings: Setaria faberi; application post-emergence; rate 1000 g/Ha; evaluated after 13 days
How it was run: as §2

ZEAMX [12] = test: as above; settings: Zea mays; application post-emergence; rate 1000 g/Ha; evaluated after 13 days
How it was run: as §2

| SMILES | ABUTH damage score, application pre-emergence (ABUTH [1]) | ALOMY damage score, application pre-emergence (ALOMY [2]) | AMARE damage score, application pre-emergence (AMARE [3]) | ECHCG damage score, application pre-emergence (ECHCG [4]) | SETFA damage score, application pre-emergence (SETFA [5]) | ZEAMX damage score, application pre-emergence (ZEAMX [6]) | Post-emergence herbicidal activity ABUTH (damage score 0-5) (ABUTH [7]) | Post-emergence herbicidal activity ALOMY (damage score 0-5) (ALOMY [8]) | Post-emergence herbicidal activity AMARE (damage score 0-5) (AMARE [9]) | Post-emergence herbicidal activity ECHCG (damage score 0-5) (ECHCG [10]) | Post-emergence herbicidal activity SETFA (damage score 0-5) (SETFA [11]) | Post-emergence herbicidal activity ZEAMX (damage score 0-5) (ZEAMX [12]) |
| --- | --- | --- | --- | --- | --- | --- | --- | --- | --- | --- | --- | --- |
| O=C1N(c2cc(C(F)(F)F)ccn2)C(O)[C@H]2CCCN12 (stereo partly drawn) [Compound A47] | 5 | 4 | 5 | 5 | 4 | 2 | 5 | 5 | 5 | 5 | 5 | 4 |
| CC(C)OC1C(O)N(c2cc(C(F)(F)F)ccn2)C(=O)N1C (stereo not drawn) [Compound A48] | 5 | 4 | 5 | 1 | 3 | 1 | 5 | 4 | 5 | 4 | 4 | 1 |
| CC1C(O)N(c2cc(C(F)(F)F)c(Cl)cn2)C(=O)N1C (stereo not drawn) [Compound A49] | 5 | 4 | 5 | 4 | 4 | 3 | 5 | 5 | 5 | 5 | 5 | 4 |
| CON1C(=O)N(c2cc(C(F)(F)F)c(Cl)cn2)C(O)C1C (stereo not drawn) [Compound A50] | 5 | 4 | 5 | 5 | 4 | 2 | 5 | 5 | 5 | 5 | 5 | 5 |
| CCOC1C(O)N(c2cc(C(F)(F)F)c(C)cn2)C(=O)N1C (stereo not drawn) [Compound A52] | 5 | 4 | 5 | 5 | 4 | 2 | 5 | 5 | 5 | 5 | 5 | 5 |
| CCOC1C(O)N(c2cc(C(F)(F)F)c(Cl)cn2)C(=O)N1C (stereo not drawn) [Compound A53] | 5 | 4 | 5 | 4 | 4 | 2 | 5 | 5 | 5 | 5 | 5 | 3 |
| CCOC1C(O)N(c2cc(C(C)(F)F)ccn2)C(=O)N1C (stereo not drawn) [Compound A59] | 5 | 4 | 5 | 3 | 3 | 1 | 5 | 5 | 5 | 5 | 5 | 4 |
| CC1C(O)N(c2cc(C(C)(F)F)ccn2)C(=O)N1C (stereo not drawn) [Compound A60] | 5 | 1 | 5 | 1 | 1 | 0 | 5 | 4 | 5 | 4 | 3 | 3 |
| CCOC1C(O)N(c2cc(C(C)(C)F)ccn2)C(=O)N1C (stereo not drawn) [Compound A61] | 5 | 4 | 5 | 4 | 1 | 1 | 5 | 5 | 5 | 5 | 5 | 3 |
| CCOC1C(OC(C)=O)N(c2cc(C(F)(F)F)ccn2)C(=O)N1C (stereo not drawn) [Compound A96] | 5 | 4 | 5 | 4 | 4 | 1 | 5 | 5 | 5 | 5 | 5 | 3 |
| CCOC1C(OC(=O)[C@@H](OC(C)=O)c2ccccc2)N(c2cc(C(F)(F)F)ccn2)C(=O)N1C (stereo partly drawn) [Compound A97] | 5 | 4 | 5 | 4 | 4 | 3 | 5 | 5 | 5 | 5 | 5 | 3 |
